In patent US11464763B2, “Parasiticidal compositions comprising an isoxazoline active agent, methods and uses thereof” (BOEHRINGER INGELHEIM ANIMAL HEALTH USA INC., priority 2011, dated 2022):
≈ marks a conversion by molar mass, not a printed value.

Legend:
[1] = system: Rhipicephalus sanguineus; assay: Spot-on efficacy against Rhipicephalus sanguineus ticks on dogs, 40% DES/DMI (Example 5); assay type: in vivo; conditions: 4.0 mg/kg
Protocol: The efficacy of a formulation comprising an isoxazoline compound (Cmpd. A) in a carrier comprising 40% DES/DMI against Ctenocephalides felis fleas and Rhipicephalus sanguineus ticks in Dogs was studied. […] Three treatment groups containing three dogs each were evaluated. All dogs were treated once topically on Day 0 by parting the hair and applying the solution from a syringe directly onto the skin in a single spot on the midline of the neck between the base of the skull and the shoulder blades.
Treatment Group 1 was a placebo control and received 0.067 mL/kg of body weight. Treatment Group 2 was administered a topical spot-on formulation comprising 6.0% (w/v) Cmpd. A in 40% DES/DMI to deliver a dose of 4.0 mg/kg body weight. Treatment Group 3 was administered a topical spot-on formulation comprising 12% (w/v) Cmpd. A in 40% DES/DMI to deliver a dose of 4.0 mg/kg body weight.

[2] = system: Ctenocephalides felis; assay: Spot-on efficacy at 1 mg/kg against Ctenocephalides felis fleas in cats (Example 7); assay type: in vivo; conditions: for efficacy against fleas: Group 2 (DMI)
Protocol: The efficacy of several spot-on formulations comprising Cmpd. A dosed at 1 mg/kg body weight in different carrier vehicles against fleas in cats was studied. Five cats each were allocated to 6 Treatment Groups. The […] per study group were subjected to weekly infestations followed by 24 h flea counts for 5 to 8 weeks, according to the following Group allocations: Group 1—untreated control; Group 2-1.0% (w/v) Cmpd. A in DMI; Group 3-1.0% (w/v) Cmpd. A in diethyl sebacate (DES); Group 4-1.0% (w/v) Cmpd. A in 9% lauryl lactate+DES; Group 5—1% (w/v) Cmpd. A in 8% ethyl oleate+DES; and Group 6-1% (w/v) Cmpd. A in a vehicle comprising Transcutol®+10% (w/v) ethanol+5% polyvinylpyrrolidone+5% TWEEN 80. Cats were infested with approximately 100 C. felis on Day −1 and treated on Day 0 with the corresponding spot-on formulation by application of the formulation directly on the skin in the midline of the neck, between the base of the skull and the shoulder blades in a single spot using a 1 mL syringe. Twelve hours after treatment, fleas were removed and counted. The cats were immediately re-infested with approximately 100 fleas. Fleas were removed and counted on Day 1 at approximately 24 hours post-treatment. Cats were also infested with fleas on Days 7, 21, […], 35, 42 and 49. Fleas were removed and counted approximately 24 hours after infestation on Days 8, 22, 29, 36, 43 and 50.

[3] = system: A. americanum; assay: Efficacious plasma concentration (EC90) against A. americanum ticks in dogs (Example 13); assay type: in vivo, Amblyomma americanum; conditions: for EC90 (concentration required to achieve 90% efficacy): plasma concentration
Protocol: Blood samples were collected from all dogs on Days −5, 0 (at 4 h and 12 h), 1, 2, 9, 16, 23, 30, 37 and 44. Plasma samples were analyzed for the concentration of Compound A using a LC/MS/MS method that was GLP validated for the analysis of the compound.
Plasma concentrations of Compound A from dogs in the studies of Examples 1 and 4 were determined according to the description in Example 1, and the plasma concentration versus % efficacy against A. americanum and D. variabilis were fit to a Sigmoidal Emax model. […] Since Compound A is systemically active, the lower concentration of the compound in the plasma required to achieve 90% efficacy from the topical compositions of the invention is surprising and unexpected.

In the case of `O=C(CNC(=O)c1ccc(C2=NOC(c3cc(Cl)cc(C(F)(F)F)c3)(C(F)(F)F)C2)c2ccccc12)NCC(F)(F)F` (centres unmarked) [Compound A, 4-[5-[3-chloro-5-(trifluoromethyl)phenyl]-4,5-dihydro-5-(trifluoromethyl)-3-isoxazolyl]-N-[2-oxo-2-[(2,2,2-trifluoroethyl)amino]ethyl]-1-naphthalanecarboxamide], the “% Reduction” value ([1]; Group 2: 6.0% in 40% DES/DMI, Day 2) is reported as 100.0%, the “% Reduction” value ([1]; Group 2: 6.0% in 40% DES/DMI, Day 30) is reported as 91.5% and the “% Reduction” value ([1]; Group 2: 6.0% in 40% DES/DMI, Day 31) is reported as 100.0%. For the same compound, the “% Reduction” value ([1]; Group 2: 6.0% in 40% DES/DMI, Day 38) was 85.2%, the “% Reduction” value ([1]; Group 3: 12% in 40% DES/DMI, Day 2) was 100.0% and the “% Reduction” value ([1]; Group 3: 12% in 40% DES/DMI, Day 30) was 72.6%. For the same compound, the “% Reduction” value ([1]; Group 3: 12% in 40% DES/DMI, Day 31) was 100.0%, the “% Reduction” value ([1]; Group 3: 12% in 40% DES/DMI, Day 38) was 51.3% and the efficacy against fleas ([2]; until Day 50) was “above 85%”. For the same compound, the efficacy against fleas ([2]; until at least Day 43) was “above 90%”, the “% Reduction” value ([2]; Group 2: 1.0% in DMI, 1 mg/kg, Day 0 (12 hr)) was 22.3% and the “% Reduction” value ([2]; Group 2: 1.0% in DMI, 1 mg/kg, Day 1) was 28.0%. The “% Reduction” value ([2]; Group 2: 1.0% in DMI, 1 mg/kg, Day 8) was 99.3%, the “% Reduction” value ([2]; Group 2: 1.0% in DMI, 1 mg/kg, Day 22) was 99.5% and the “% Reduction” value ([2]; Group 2: 1.0% in DMI, 1 mg/kg, Day 29) was 98.5%. For the same compound, the “% Reduction” value ([2]; Group 2: 1.0% in DMI, 1 mg/kg, Day 36) was 94.2%, the “% Reduction” value ([2]; Group 2: 1.0% in DMI, 1 mg/kg, Day 43) was 94.3% and the “% Reduction” value ([2]; Group 2: 1.0% in DMI, 1 mg/kg, Day 50) was 87.7%. The “% Reduction” value ([2]; Group 3: 1.0% in DES, 1 mg/kg, Day 0 (12 hr)) was 9.6%, the “% Reduction” value ([2]; Group 3: 1.0% in DES, 1 mg/kg, Day 1) was 72.7% and the “% Reduction” value ([2]; Group 3: 1.0% in DES, 1 mg/kg, Day 8) was 99.7%. For the same compound, the “% Reduction” value ([2]; Group 3: 1.0% in DES, 1 mg/kg, Day 22) was 97.4%, the “% Reduction” value ([2]; Group 3: 1.0% in DES, 1 mg/kg, Day 29) was 95.1% and the “% Reduction” value ([2]; Group 3: 1.0% in DES, 1 mg/kg, Day 36) was 79.3%. The “% Reduction” value ([2]; Group 3: 1.0% in DES, 1 mg/kg, Day 43) was 72.2%, the “% Reduction” value ([2]; Group 3: 1.0% in DES, 1 mg/kg, Day 50) was 44.8% and the “% Reduction” value ([2]; Group 4: 1.0% in 9% lauryl lactate+DES, 1 mg/kg, Day 0 (12 hr)) was 9.2%. The “% Reduction” value ([2]; Group 4: 1.0% in 9% lauryl lactate+DES, 1 mg/kg, Day 1) was 36.5%, the “% Reduction” value ([2]; Group 4: 1.0% in 9% lauryl lactate+DES, 1 mg/kg, Day 8) was 99.7% and the “% Reduction” value ([2]; Group 4: 1.0% in 9% lauryl lactate+DES, 1 mg/kg, Day 22) was 98.5%. For the same compound, the “% Reduction” value ([2]; Group 4: 1.0% in 9% lauryl lactate+DES, 1 mg/kg, Day 29) was 98.1%, the “% Reduction” value ([2]; Group 4: 1.0% in 9% lauryl lactate+DES, 1 mg/kg, Day 36) was 89.3% and the “% Reduction” value ([2]; Group 4: 1.0% in 9% lauryl lactate+DES, 1 mg/kg, Day 43) was 92.7%. The “% Reduction” value ([2]; Group 4: 1.0% in 9% lauryl lactate+DES, 1 mg/kg, Day 50) was 79.2%, the “% Reduction” value ([2]; Group 5: 1% in 8% ethyl oleate+DES, 1 mg/kg, Day 0 (12 hr)) was 65.9% and the “% Reduction” value ([2]; Group 5: 1% in 8% ethyl oleate+DES, 1 mg/kg, Day 1) was 77.2%. The “% Reduction” value ([2]; Group 5: 1% in 8% ethyl oleate+DES, 1 mg/kg, Day 8) was 98.4%, the “% Reduction” value ([2]; Group 5: 1% in 8% ethyl oleate+DES, 1 mg/kg, Day 22) was 96.9% and the “% Reduction” value ([2]; Group 5: 1% in 8% ethyl oleate+DES, 1 mg/kg, Day 29) was 95.0%. The “% Reduction” value ([2]; Group 5: 1% in 8% ethyl oleate+DES, 1 mg/kg, Day 36) was 85.5%, the “% Reduction” value ([2]; Group 5: 1% in 8% ethyl oleate+DES, 1 mg/kg, Day 43) was 79.7% and the “% Reduction” value ([2]; Group 5: 1% in 8% ethyl oleate+DES, 1 mg/kg, Day 50) was 64.0%. For the same compound, the “% Reduction” value ([2]; Group 6: 1% in Transcutol+10% ethanol+5% polyvinylpyrrolidone+5% TWEEN 80, 1 mg/kg, Day 0 (12 hr)) was 17.7%, the “% Reduction” value ([2]; Group 6: 1% in Transcutol+10% ethanol+5% polyvinylpyrrolidone+5% TWEEN 80, 1 mg/kg, Day 1) was 75.6% and the “% Reduction” value ([2]; Group 6: 1% in Transcutol+10% ethanol+5% polyvinylpyrrolidone+5% TWEEN 80, 1 mg/kg, Day 8) was 100.0%. The “% Reduction” value ([2]; Group 6: 1% in Transcutol+10% ethanol+5% polyvinylpyrrolidone+5% TWEEN 80, 1 mg/kg, Day 22) was 99.3%, the “% Reduction” value ([2]; Group 6: 1% in Transcutol+10% ethanol+5% polyvinylpyrrolidone+5% TWEEN 80, 1 mg/kg, Day 29) was 97.5% and the “% Reduction” value ([2]; Group 6: 1% in Transcutol+10% ethanol+5% polyvinylpyrrolidone+5% TWEEN 80, 1 mg/kg, Day 36) was 93.8%. For the same compound, the “% Reduction” value ([2]; Group 6: 1% in Transcutol+10% ethanol+5% polyvinylpyrrolidone+5% TWEEN 80, 1 mg/kg, Day 43) was 93.9%, the “% Reduction” value ([2]; Group 6: 1% in Transcutol+10% ethanol+5% polyvinylpyrrolidone+5% TWEEN 80, 1 mg/kg, Day 50) was 79.6% and the “concentration required to achieve 90% efficacy, lower than the concentration required from oral administration” value ([3]; dogs, topical vs oral) was “about 42%”. The “EC90 (concentration required to achieve 90% efficacy)” value ([3]; dogs, topical compositions, Sigmoidal Emax model) was 0.092 µg/mL (≈ 0.147 µM) and the “EC90 (concentration required to achieve 90% efficacy)” value ([3]; oral dosage form) was 0.158 µg/mL (≈ 0.252 µM).
